Several values for one entry are separate records, joined by “and”; a condition that tells them apart may be missing. Equal entries are not always repeated.
Experiments:
[1] = biological target: T1, Histone deacetylase 1/2/3/6 (Homo sapiens, UniProt Q13547+O15379+Q9UBN7+Q92769); assay: Inhibition of HDAC1/2/3/6 in human A2780 cells using Boc-Lys(epsilon-Ac)-AMC as substrate preincubated for 18 hrs followed by substrate addition measured after 3 hrs by fluorescence assay; assay type: cell-based
[2] = biological target: T1, Histone deacetylase 1/2/3/6; assay: Inhibition of HDAC1/2/3/6 in human A2780cisR cells using Boc-Lys(epsilon-Ac)-AMC as substrate preincubated for 18 hrs followed by substrate addition measured after 3 hrs by fluorescence assay; assay type: cell-based
[3] = biological target: T1, Histone deacetylase 1/2/3/6; assay: Inhibition of HDAC1/2/3/6 in human Cal27 cells using Boc-Lys(epsilon-Ac)-AMC as substrate preincubated for 18 hrs followed by substrate addition measured after 3 hrs by fluorescence assay; assay type: cell-based
A2780cisR = assay: Cytotoxicity against human A2780cisR cells assessed as cell survival after 72 hrs by MTT assay; assay type: functional, cell-based
A2780 = assay: Cytotoxicity against human A2780 cells assessed as cell survival after 72 hrs by MTT assay; assay type: functional, cell-based; details: A2780, 72 h
CAL-27 = assay: Cytotoxicity against human CAL27 cells assessed as cell survival after 72 hrs by MTT assay; assay type: functional, cell-based; details: CAL-27, 72 h
[4] = biological target: T1, Histone deacetylase 1/2/3/6; assay: Inhibition of HDAC1/2/3/6 in human Cal27CisR cells using Boc-Lys(epsilon-Ac)-AMC as substrate preincubated for 18 hrs followed by substrate addition measured after 3 hrs by fluorescence assay; assay type: cell-based
[5] = Cytotoxicity against human Cal27CisR cells assessed as cell survival after 72 hrs by MTT assay; assay type: functional, cell-based
Histone deacetylase 1 = Histone deacetylase 1 (Homo sapiens, UniProt Q13547); assay: Inhibition of C-terminal FLAG/His-tagged recombinant human HDAC1 expressed in baculovirus infected Sf9 insect cells using Z-(Ac)Lys-AMC as substrate measured after 90 mins by fluorescence assay
Histone deacetylase 1, sequence (Q13547 whole entry): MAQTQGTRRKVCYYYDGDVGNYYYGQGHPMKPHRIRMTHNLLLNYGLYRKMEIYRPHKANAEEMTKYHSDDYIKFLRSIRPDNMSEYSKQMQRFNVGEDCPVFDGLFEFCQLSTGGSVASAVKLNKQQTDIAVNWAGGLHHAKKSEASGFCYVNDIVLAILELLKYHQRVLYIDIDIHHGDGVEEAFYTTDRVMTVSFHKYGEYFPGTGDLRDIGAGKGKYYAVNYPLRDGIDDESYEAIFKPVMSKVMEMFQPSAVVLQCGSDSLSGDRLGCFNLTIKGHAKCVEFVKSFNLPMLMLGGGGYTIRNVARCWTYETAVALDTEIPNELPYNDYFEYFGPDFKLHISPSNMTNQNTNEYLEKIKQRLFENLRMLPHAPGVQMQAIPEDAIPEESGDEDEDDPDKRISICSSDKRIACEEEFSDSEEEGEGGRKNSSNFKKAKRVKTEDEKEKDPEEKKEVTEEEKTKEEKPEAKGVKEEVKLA

[6] = biological target: T2, Protein deacetylase HDAC6 (Homo sapiens, UniProt Q9UBN7); assay: Inhibition of N-terminal GST-tagged recombinant human HDAC6 expressed in baculovirus infected Sf9 insect cells using Z-(Ac)Lys-AMC as substrate measured after 90 mins by fluorescence assay
T2 sequence (Q9UBN7 whole entry): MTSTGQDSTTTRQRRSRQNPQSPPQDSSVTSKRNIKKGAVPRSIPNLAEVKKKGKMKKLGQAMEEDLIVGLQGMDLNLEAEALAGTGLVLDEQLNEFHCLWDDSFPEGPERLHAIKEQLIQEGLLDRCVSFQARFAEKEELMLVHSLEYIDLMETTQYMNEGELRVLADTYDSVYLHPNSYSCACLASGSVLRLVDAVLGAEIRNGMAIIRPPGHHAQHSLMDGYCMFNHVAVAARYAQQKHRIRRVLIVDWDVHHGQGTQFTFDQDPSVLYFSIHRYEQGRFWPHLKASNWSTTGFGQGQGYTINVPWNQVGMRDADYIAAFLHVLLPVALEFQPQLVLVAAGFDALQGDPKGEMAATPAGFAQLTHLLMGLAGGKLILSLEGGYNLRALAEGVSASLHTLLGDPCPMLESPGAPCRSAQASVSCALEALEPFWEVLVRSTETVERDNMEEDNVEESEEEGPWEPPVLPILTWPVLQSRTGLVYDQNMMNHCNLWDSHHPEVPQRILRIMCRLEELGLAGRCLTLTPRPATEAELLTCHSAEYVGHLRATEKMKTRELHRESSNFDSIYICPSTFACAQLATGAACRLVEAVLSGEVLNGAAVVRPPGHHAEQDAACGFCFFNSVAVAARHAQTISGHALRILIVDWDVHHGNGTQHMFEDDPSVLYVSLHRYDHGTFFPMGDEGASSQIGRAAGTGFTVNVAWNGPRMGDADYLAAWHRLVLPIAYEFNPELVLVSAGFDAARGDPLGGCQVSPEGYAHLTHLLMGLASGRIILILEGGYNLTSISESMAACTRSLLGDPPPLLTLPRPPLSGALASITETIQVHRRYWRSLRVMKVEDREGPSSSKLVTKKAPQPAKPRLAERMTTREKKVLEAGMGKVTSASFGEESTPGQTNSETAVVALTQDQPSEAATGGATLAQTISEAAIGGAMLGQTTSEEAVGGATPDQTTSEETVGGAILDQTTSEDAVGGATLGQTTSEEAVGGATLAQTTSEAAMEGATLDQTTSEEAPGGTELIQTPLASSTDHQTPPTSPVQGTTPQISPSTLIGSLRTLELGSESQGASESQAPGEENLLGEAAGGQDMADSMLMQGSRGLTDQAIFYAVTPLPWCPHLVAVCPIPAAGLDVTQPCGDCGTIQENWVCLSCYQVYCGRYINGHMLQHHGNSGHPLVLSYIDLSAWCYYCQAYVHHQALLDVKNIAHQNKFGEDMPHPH

[7] = biological target: Histone deacetylase 3/Nuclear receptor corepressor 2 (HDAC3/NCoR2) (Homo sapiens, UniProt O15379); assay: Inhibition of full length human recombinant C-terminal His-tagged HDAC3/NcoR2 expressed in baculovirus infected Sf9 insect cells using Boc-Lys(epsilon-Ac)-AMC as substrate measured after 90 mins by fluorescence assay
Histone deacetylase 3/Nuclear receptor corepressor 2 (HDAC3/NCoR2), sequence (O15379 whole entry): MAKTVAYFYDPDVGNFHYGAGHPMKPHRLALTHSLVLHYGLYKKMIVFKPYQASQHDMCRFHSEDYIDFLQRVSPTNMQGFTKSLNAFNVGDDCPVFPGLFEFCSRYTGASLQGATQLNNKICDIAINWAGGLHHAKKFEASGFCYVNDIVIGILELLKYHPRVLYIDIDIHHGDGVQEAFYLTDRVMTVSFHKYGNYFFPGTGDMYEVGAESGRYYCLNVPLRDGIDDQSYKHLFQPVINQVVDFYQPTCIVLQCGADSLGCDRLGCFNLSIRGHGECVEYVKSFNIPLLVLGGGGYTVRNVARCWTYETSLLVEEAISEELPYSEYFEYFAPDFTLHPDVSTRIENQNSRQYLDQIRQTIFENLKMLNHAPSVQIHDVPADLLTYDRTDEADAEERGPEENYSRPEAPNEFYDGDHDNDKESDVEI
Histone deacetylase 3/Nuclear receptor corepressor 2 (HDAC3/NCoR2), sequence (Q9Y618 whole entry, further chain): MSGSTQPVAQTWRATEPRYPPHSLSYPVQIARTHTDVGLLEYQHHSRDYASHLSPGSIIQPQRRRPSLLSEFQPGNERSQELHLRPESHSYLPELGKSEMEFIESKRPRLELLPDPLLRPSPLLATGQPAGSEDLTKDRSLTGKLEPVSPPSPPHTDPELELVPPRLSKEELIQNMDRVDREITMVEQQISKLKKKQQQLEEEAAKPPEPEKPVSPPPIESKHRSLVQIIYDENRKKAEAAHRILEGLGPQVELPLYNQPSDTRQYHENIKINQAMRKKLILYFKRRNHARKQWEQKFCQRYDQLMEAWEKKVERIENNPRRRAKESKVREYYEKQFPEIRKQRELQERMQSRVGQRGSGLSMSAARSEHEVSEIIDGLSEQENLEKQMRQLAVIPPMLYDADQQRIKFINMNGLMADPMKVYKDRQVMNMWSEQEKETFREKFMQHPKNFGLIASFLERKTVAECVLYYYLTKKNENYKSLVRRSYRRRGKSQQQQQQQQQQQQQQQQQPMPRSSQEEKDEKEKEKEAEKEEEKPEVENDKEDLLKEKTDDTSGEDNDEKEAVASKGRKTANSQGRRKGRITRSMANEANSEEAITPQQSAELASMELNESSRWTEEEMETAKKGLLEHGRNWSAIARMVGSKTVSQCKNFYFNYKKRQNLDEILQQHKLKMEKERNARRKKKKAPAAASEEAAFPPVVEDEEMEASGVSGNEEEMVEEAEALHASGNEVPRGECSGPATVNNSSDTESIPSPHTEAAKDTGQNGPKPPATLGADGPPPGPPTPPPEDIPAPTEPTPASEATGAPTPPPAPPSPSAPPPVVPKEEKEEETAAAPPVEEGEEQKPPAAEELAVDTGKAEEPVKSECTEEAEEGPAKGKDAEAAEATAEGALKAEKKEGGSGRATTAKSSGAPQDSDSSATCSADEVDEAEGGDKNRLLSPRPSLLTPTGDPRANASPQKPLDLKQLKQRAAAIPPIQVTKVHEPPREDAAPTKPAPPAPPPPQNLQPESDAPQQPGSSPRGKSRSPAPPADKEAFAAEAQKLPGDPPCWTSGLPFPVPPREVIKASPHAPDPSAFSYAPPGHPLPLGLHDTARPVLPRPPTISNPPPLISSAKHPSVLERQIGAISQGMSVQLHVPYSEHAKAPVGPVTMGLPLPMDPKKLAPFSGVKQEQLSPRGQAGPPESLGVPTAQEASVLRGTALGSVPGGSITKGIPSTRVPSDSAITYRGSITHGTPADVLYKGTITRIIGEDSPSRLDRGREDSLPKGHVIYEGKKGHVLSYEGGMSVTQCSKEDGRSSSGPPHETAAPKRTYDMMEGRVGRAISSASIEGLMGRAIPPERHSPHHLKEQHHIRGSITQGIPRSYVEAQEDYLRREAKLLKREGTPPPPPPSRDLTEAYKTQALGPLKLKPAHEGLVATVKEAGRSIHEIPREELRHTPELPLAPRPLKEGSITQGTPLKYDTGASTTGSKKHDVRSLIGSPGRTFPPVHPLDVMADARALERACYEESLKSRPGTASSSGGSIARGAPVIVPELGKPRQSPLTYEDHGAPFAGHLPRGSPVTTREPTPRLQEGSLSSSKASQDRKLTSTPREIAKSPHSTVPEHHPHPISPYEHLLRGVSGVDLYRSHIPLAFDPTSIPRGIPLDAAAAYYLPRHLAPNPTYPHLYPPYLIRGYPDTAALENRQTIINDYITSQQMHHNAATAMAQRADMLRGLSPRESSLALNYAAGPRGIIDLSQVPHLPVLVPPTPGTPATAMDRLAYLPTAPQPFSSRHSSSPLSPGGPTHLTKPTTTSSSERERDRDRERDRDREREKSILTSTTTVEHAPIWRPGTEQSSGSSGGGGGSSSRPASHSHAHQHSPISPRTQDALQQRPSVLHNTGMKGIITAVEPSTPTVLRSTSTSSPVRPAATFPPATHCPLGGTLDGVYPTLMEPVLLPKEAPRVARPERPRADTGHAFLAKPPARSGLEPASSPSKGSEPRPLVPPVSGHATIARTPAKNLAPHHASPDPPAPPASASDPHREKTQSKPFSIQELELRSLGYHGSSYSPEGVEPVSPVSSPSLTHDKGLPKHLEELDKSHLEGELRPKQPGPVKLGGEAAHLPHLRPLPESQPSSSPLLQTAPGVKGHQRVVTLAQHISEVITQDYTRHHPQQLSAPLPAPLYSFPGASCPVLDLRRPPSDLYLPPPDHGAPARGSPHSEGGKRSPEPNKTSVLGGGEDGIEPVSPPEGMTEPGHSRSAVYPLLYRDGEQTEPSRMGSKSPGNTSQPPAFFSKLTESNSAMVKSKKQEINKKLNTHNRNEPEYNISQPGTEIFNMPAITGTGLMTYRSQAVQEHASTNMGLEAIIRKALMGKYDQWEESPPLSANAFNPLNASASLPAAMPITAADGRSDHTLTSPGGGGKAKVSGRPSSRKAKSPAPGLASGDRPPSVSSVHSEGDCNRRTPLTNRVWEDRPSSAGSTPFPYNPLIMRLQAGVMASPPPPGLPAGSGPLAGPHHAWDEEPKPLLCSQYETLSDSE

Histone deacetylase 2 = Histone deacetylase 2 (Homo sapiens, UniProt Q92769); assay: Inhibition of full length human recombinant C-terminal FLAG-tagged HDAC2 expressed in baculovirus infected Sf9 insect cells using Boc-Lys(epsilon-Ac)-AMC as substrate measured after 90 mins by fluorescence assay; assay type: cell-based
Histone deacetylase 2, sequence (Q92769 whole entry): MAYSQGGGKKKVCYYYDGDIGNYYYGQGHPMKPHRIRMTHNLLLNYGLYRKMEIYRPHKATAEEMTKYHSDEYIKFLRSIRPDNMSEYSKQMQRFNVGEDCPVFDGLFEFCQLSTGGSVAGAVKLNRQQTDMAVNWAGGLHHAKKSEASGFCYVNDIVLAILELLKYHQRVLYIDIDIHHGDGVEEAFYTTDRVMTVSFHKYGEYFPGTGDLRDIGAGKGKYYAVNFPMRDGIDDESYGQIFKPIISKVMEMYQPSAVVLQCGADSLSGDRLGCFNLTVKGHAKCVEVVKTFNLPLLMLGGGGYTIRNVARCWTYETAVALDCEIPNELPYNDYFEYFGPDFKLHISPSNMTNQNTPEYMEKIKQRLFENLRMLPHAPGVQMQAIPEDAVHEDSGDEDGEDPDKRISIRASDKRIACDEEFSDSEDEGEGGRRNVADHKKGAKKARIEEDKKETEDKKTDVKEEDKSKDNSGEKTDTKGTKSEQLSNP

Histone deacetylase 8 = biological target: T3, Histone deacetylase 8 (Homo sapiens, UniProt Q9BY41); assay: Inhibition of human recombinant HDAC8 expressed in Escherichia coli using Z-L-Lys(epsilon-trifluoroacetyl)-AMC as substrate measured after 90 mins by fluorescence assay
T3 sequence (Q9BY41 whole entry): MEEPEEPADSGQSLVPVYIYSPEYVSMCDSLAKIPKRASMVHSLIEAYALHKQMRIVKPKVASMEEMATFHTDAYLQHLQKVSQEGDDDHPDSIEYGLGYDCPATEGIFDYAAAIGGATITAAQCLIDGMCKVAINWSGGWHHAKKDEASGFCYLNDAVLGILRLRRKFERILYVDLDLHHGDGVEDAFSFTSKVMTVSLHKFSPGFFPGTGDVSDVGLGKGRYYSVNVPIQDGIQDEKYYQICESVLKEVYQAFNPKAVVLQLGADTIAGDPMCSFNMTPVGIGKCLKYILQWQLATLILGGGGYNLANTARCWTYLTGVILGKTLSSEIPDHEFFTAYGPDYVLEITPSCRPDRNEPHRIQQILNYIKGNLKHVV

[8] = Apparent permeability in human Caco2 cells; assay type: ADME, cell-based, Caco-2
[9] = Apparent permeability in MDCK cells; assay type: ADME, cell-based, Canis lupus familiaris; details: dog
[10] = biological target: Voltage-gated inwardly rectifying potassium channel KCNH2 (Homo sapiens, UniProt Q12809); assay: Inhibition of human ERG
Voltage-gated inwardly rectifying potassium channel KCNH2, sequence (Q12809 whole entry): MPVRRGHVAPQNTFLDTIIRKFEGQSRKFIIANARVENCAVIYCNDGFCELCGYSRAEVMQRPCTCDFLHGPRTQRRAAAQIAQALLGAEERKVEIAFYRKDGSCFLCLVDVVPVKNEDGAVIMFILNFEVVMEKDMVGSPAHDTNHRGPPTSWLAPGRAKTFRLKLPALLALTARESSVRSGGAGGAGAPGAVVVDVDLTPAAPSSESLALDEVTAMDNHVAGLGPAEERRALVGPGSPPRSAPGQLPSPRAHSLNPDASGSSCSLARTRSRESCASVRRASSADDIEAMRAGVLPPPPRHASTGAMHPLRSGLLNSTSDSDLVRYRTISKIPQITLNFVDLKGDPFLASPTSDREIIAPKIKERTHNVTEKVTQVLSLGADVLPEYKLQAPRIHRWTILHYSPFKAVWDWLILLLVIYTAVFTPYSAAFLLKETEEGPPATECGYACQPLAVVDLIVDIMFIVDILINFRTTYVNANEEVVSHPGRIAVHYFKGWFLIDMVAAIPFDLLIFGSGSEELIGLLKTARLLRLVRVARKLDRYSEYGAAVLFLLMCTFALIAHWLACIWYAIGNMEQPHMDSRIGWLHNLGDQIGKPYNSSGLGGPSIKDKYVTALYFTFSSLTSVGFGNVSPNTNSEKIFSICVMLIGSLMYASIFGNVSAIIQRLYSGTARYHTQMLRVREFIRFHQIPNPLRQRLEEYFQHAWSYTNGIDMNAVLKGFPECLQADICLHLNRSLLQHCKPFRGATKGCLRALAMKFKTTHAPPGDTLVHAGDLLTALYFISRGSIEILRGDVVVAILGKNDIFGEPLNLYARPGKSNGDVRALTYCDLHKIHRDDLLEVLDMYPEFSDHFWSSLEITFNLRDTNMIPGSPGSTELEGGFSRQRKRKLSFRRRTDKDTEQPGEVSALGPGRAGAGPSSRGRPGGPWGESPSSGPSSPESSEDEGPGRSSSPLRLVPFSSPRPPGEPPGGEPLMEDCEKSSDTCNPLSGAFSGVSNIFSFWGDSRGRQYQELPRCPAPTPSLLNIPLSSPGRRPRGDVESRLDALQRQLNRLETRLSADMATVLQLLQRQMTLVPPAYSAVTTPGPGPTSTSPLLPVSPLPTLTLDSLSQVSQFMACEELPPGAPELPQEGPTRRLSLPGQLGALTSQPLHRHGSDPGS

| IC50 [1] [µM] | IC50 [2] [µM] | IC50 [3] [µM] | IC50 [4] [µM] | IC50 (Histone deacetylase 1) [µM] | IC50 [6] [µM] | IC50 [7] [µM] | IC50 (Histone deacetylase 2) [µM] | IC50 (Histone deacetylase 8) [µM] | Papp ([8]; Caco-2, read-out: Papp) [×10⁻⁶ cm/s] | Papp ([9]; MDCK, read-out: Papp) [×10⁻⁶ cm/s] | Papp ([8]; caco-2) [×10⁻⁶ cm/s] | Papp ([9]; mdck) [×10⁻⁶ cm/s] | SMILES | IC50 (A2780cisR) [µM] | IC50 (A2780) [µM] | IC50 (CAL-27) [µM] | IC50 [5] [µM] | IC50 [10] |
| --- | --- | --- | --- | --- | --- | --- | --- | --- | --- | --- | --- | --- | --- | --- | --- | --- | --- | --- |
| 127 | 102 | 92.5 | 132 |  |  |  |  |  |  |  |  |  | CC(C)(C)NC(=O)C(C)(C)N(CCCCCC(=O)NO)C(=O)c1ccccc1 | 579 | 207 | 75.8 | 13.8 |  |
|  |  |  |  |  |  |  |  |  | 9.8 | 6.6 | 10.1 | 5.8 | CN(C)c1ccc(C(=O)N(CC(=O)NC2CCCCC2)Cc2ccc(C(=O)NO)cc2)cc1 |  |  |  |  | 21.5 µM and 52.1 µM |
| 24.5 | 30.8 | 18.2 | 28.8 |  |  |  |  |  |  |  |  |  | CN(C)c1ccc(C(=O)N(CCCCCC(=O)NO)C(C)(C)C(=O)NC2CCCCC2)cc1 | 107 | 68.5 | 47.7 | 46.1 |  |
| 0.63 | 0.35 | 0.37 | 0.41 | 0.0247 | 0.135 | 0.026 | 0.061 | 7.33 |  |  |  |  | Cc1cc(C)cc(C(=O)N(CCCCCC(=O)NO)CC(=O)NCc2ccccc2)c1 | 1.85 | 0.33 | 0.7 | 1.41 |  |
| 8.98 | 9.51 | 6.85 | 4.59 |  |  |  |  |  |  |  |  |  | CC(C)(C)NC(=O)CN(CCCCCC(=O)NO)C(=O)c1ccccc1 | 42.4 | 20.7 | 16.7 | 19.5 |  |
| 0.66 | 0.68 | 0.37 | 0.49 | 0.0964 | 0.106 | 0.016 | 0.146 | 6.76 |  |  |  |  | Cc1ccc(NC(=O)CN(CCCCCC(=O)NO)C(=O)c2ccc(N(C)C)cc2)cc1 | 1.61 | 0.4 | 0.53 | 0.6 |  |
| 37.9 | 44.9 | 26.2 | 43 |  |  |  |  |  |  |  |  |  | CC(C)(C(=O)NC1CCCCC1)N(CCCCCC(=O)NO)C(=O)c1ccccc1 | 281 | 295 | 66.9 | 4.07 |  |
| 1.3 | 0.81 | 0.95 | 0.8 |  |  |  |  |  |  |  |  |  | Cc1ccc(NC(=O)CN(CCCCCC(=O)NO)C(=O)c2cc(C)cc(C)c2)cc1 | 2.18 | 1.27 | 1.67 | 2.11 |  |
| 3.14 | 2.92 | 2.06 | 2.65 |  |  |  |  |  |  |  |  |  | O=C(CCCCCN(C(=O)c1ccccc1)C(C(=O)NC1CCCCC1)c1ccccc1)NO (stereo unspecified) | 5.18 | 3.87 | 6.36 | 5.28 |  |

More lines, now with the values behind:

| SMILES | IC50 [1] [µM] | IC50 [2] [µM] | IC50 [3] [µM] | IC50 [4] [µM] | IC50 (Histone deacetylase 1) [µM] | IC50 [6] [µM] | IC50 [7] [µM] | IC50 (Histone deacetylase 2) [µM] | IC50 (Histone deacetylase 8) [µM] | Papp ([8]; Caco-2, read-out: Papp) [×10⁻⁶ cm/s] | Papp ([9]; MDCK, read-out: Papp) [×10⁻⁶ cm/s] | Papp ([8]; caco-2) [×10⁻⁶ cm/s] | Papp ([9]; mdck) [×10⁻⁶ cm/s] | IC50 (A2780cisR) [µM] | IC50 (A2780) [µM] | IC50 (CAL-27) [µM] | IC50 [5] [µM] | IC50 [10] |
| --- | --- | --- | --- | --- | --- | --- | --- | --- | --- | --- | --- | --- | --- | --- | --- | --- | --- | --- |
| Cc1ccc(C(C(=O)NC2CCCCC2)N(CCCCCC(=O)NO)C(=O)c2ccccc2)cc1 (stereo unspecified) | 2.81 | 3.63 | 2.94 | 3.22 |  |  |  |  |  |  |  |  |  | 4.29 | 2.09 | 4.52 | 19 |  |
| CC(C)CNC(=O)CN(CCCCCC(=O)NO)C(=O)c1ccc(N(C)C)cc1 | 1.09 | 0.82 | 0.87 | 0.8 |  |  |  |  |  |  |  |  |  | 3.19 | 1.9 | 1.87 | 2.11 |  |
| O=C(CCCCCN(CC(=O)NC1CCCCC1)C(=O)c1cccc2ccccc12)NO | 0.96 | 1.29 | 0.75 | 0.6 |  |  |  |  |  |  |  |  |  | 4.12 | 0.26 | 2.4 | 5.6 |  |
| Cc1cc(C)cc(C(=O)N(CCCCCC(=O)NO)CC(=O)NC2CCCCC2)c1 | 0.88 | 0.93 | 0.71 | 0.64 | 0.0274 | 0.214 | 0.06 | 0.084 | 7.4 |  |  |  |  | 3.81 | 0.16 | 1.13 | 1.14 |  |
| O=C(CCCCCN1C(=O)c2ccccc2N(Cc2ccccc2)C(=O)[C@@H]1Cc1ccccc1)NO |  |  |  |  |  |  |  |  |  | 14.4 | 10.9 |  |  |  |  |  |  | 2.23 µM |
| CN(C)c1ccc(C(=O)N(CCCCCC(=O)NO)CC(=O)NC2CCCCC2)cc1 | 1.42 | 1.9 | 1.4 | 1.52 |  |  |  |  |  |  |  |  |  | 3.31 | 1.54 | 2.97 | 35.5 |  |
| CN(C)c1ccc(C(=O)N(CCCCCC(=O)NO)CC(=O)NC(C)(C)C)cc1 | 2.06 | 2.49 | 1.78 | 1.97 |  |  |  |  |  |  |  |  |  | 5.18 | 1.03 | 4.04 | 2.18 |  |
| O=C(CCCCCN(C(=O)c1ccccc1)C1(C(=O)NC2CCCCC2)CCCCC1)NO | 13.4 | 10.1 | 14.3 | 10.2 |  |  |  |  |  |  |  |  |  | 50.5 | 42.6 | 44.1 | 77.5 |  |
| O=C(CCCCCN(CC(=O)NC1CCCCC1)C(=O)c1ccccc1)NO | 1.66 | 1.13 | 1.34 | 1.08 |  |  |  |  |  |  |  |  |  | 8.21 | 3.46 | 3.8 | 10.3 |  |
